Source: US20030171377A1, “Antidiabetic agents” (priority 2001, published 2003)
Where a name gives a salt, the structure may show the parent alone.

Test system: Ob/Ob diabetic mouse model
Test: In vivo glucose lowering, Ob/Ob diabetic mouse model
Details: 20 mg/kg

SMILES | In vivo Δ Glucose@ 20 mg/kg
Cc1oc(-c2ccccc2)nc1CCCc1ccc(CC(C(=O)O)n2cncn2)cc1 (stereo not drawn) [Example 0336683] | −53

Same assay, conditions: glucose effect relative to rosiglitazone

SMILES | In vivo % Rosiglitazone [%]
Cc1oc(-c2ccccc2)nc1CCCc1ccc(CC(C(=O)O)n2cncn2)cc1 (stereo not drawn) [Example 0336683] | 24.38
Cc1oc(-c2ccccc2)nc1CCCc1ccc(CC(C(=O)O)n2cccn2)cc1 (racemic) [Example 0339165, 3-{4-[3-(5-Methyl-2-phenyl-oxazol-4-yl)-propyl]-phenyl}-2-pyrazol-1-yl-propionic acid] | 102.49

Biological target: T1, PPAR alpha (Homo sapiens, UniProt Q07869)
T1 construct: expressed in transfected cells; host or cells: HepG2
T1 sequence (Q07869 1-468): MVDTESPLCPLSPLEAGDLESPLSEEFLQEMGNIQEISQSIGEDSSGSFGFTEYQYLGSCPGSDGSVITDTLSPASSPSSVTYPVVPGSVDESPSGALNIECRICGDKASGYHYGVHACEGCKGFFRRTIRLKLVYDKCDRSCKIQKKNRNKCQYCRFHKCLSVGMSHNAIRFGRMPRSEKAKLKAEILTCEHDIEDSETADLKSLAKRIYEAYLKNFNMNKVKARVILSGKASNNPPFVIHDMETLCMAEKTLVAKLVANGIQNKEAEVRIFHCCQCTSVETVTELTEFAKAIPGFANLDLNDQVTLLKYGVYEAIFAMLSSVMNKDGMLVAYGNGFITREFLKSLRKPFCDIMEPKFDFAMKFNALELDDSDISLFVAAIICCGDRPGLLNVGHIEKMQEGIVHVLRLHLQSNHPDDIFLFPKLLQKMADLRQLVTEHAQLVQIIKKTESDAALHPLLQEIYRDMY
Test: HepG2-hALPHA assay (PPAR alpha)
Type: cell-based
Details: HepG2 cells

HepG2-hAlpha Max. Res. % GW9578 [% GW9578] | HepG2-hAlpha concentration of Max. Res. (uM, in brackets) [µM] | SMILES
100.0 | 1 | CCCCCCCN(CCc1ccc(SC(C)(C)C(=O)O)cc1)C(=O)Nc1ccc(F)cc1F [GW9578]

Test system: not given
Test: not given
Details: not given

melting point [°C] | SMILES
133 to 135 | Cc1cc(C(Cc2ccc(CCCc3nc(-c4ccccc4)oc3C)cc2)C(=O)O)on1 (stereo not drawn) [Example 104, 2-(3-Methyl-isoxazol-5-yl)-3-{4-[3-(5-methyl-2-phenyl-oxazol-4-yl)-propyl]-phenyl}-propionic acid]
143 to 146 | CC(C(=O)O)n1ccc2c(OCc3ccccc3)cccc21 (stereo not drawn) [Example 60, 2-(4-Benzyloxy-indol-1-yl)-propionic acid]
157 to 159 | Cc1oc(-c2ccccc2)nc1CCOc1cccc2c1ccn2C(C)C(=O)O (stereo not drawn) [Example 65, 2-(4-[2-(5-Methyl-2-phenyl-oxazol-4-yl)-ethoxy]-indol-1-yl)-propionic acid]
110 to 112 | CC(=O)c1cccn1[C@@H](Cc1ccc(OCCc2nc(-c3ccccc3)oc2C)cc1)C(=O)O [Example 14, (S)-2-(2-Acetyl-pyrrol-1-yl)-3-{4-[2-(5-methyl-2-phenyl-oxazol-4-yl)-ethoxy]-phenyl}-propionic acid]
126 to 130 | O=C(O)[C@H](Cc1ccc(/C=C/CN2CCC(c3ccccc3)CC2)cc1)n1cccc1 [Example 129d, (S)-3-{4-[(E)-3-(4-Phenyl-piperidin-1-yl)-propenyl]-phenyl}-2-pyrrol-1-yl-propionic acid]
143 to 144 | Cc1oc(-c2ccccc2)nc1CCOc1cc(CC(C(=O)O)n2cccc2)on1 (stereo not drawn) [Example 77, 3-{3-[2-(5-Methyl-2-phenyl-oxazol-4-yl)-ethoxy]-isoxazol-5-yl}-2-pyrrol-1-yl-propionic acid]
82 to 87 | CC(=O)N(CCc1nc(-c2ccccc2)oc1C)Cc1ccc(C[C@@H](C(=O)O)n2cccc2)cc1 [Example 111, (S)-3-[4-({Acetyl-[2-(5-methyl-2-phenyl-oxazol-4-yl)-ethyl]-amino}-methyl)-phenyl]-2-pyrrol-1-yl-propionic acid]
157 to 158 | Cc1sc(-c2ccccc2)nc1CCOc1ccc(C[C@@H](C(=O)O)n2cccc2)cc1 [Example 18, (S)-3-{4-[2-(5-Methyl-2-phenyl-thiazol-4-yl)-ethoxy]-phenyl}-2-pyrrol-1-yl-propionic acid]
90 to 92 | Cc1oc(-c2ccccc2)nc1CCC(=O)c1ccc(CC(C(=O)O)n2cccc2)cc1 (stereo not drawn) [Example 44, 3-{4-[3-(5-Methyl-2-phenyl-oxazol-4-yl)-propionyl]-phenyl}-2-pyrrol-1-yl-propionic acid]
114.7 to 116.6 | COc1ccc(C(Cc2ccc(OCCc3nc(-c4ccccc4)oc3C)cc2)C(=O)O)cc1 (stereo not drawn) [Example 37, 2-(4-Methoxy-phenyl)-3-{4-[2-(5-methyl-2-phenyl-oxazol-4-yl)-ethoxy]-phenyl}-propionic acid]
133 to 134 | Cc1oc(-c2ccccc2)nc1CCOc1ccc(CC(C)(C)C(=O)O)cc1 [Example 40, 2,2-Dimethyl-3-{4-[2-(5-methyl-2-phenyl-oxazol-4-yl)-ethoxy]-phenyl}-propionic acid]
165 to 166 | Cc1oc(-c2ccccc2)nc1CCOc1ccc(CC(C)(C(=O)O)c2cccs2)cc1 (stereo not drawn) [Example 73, 2-Methyl-3-{4-[2-(5-methyl-2-phenyl-oxazol-4-yl)-ethoxy]-phenyl}-2-thiophen-2-yl-propionic acid]
124.1 to 125 | Cc1oc(-c2ccccc2)nc1CCOc1ccc(C[C@@H](C(=O)O)c2ccccc2)cc1 [Example 36, 3-{4-[2-(5-Methyl-2-phenyl-oxazol-4-yl)-ethoxy]-phenyl}-2-phenyl-propionic acid (R)]
90 to 92 | Cc1oc(-c2ccccc2)nc1CCC(=O)c1ccc(C[C@@H](C(=O)O)n2cccc2)cc1 (stereo in doubt) [Example 31, 3-{4-[3-(5-Methyl-2-phenyl-oxazol-4-yl)-propionyl]-phenyl}-2-pyrrol-1-yl-propionic acid]
163 to 165 | Cc1oc(-c2ccccc2)nc1CCOc1ccc(CC(F)(C(=O)O)c2ccccc2)cc1 (stereo not drawn) [Example 41, 2-Fluoro-3-{4-[2-(5-methyl-2-phenyl-oxazol-4-yl)-ethoxy]-phenyl}-2-phenyl-propionic acid]
120 | Cc1oc(-c2ccccc2)nc1CCOc1ccc(CC(C(=O)O)c2nc(-c3ccccc3)oc2C)cc1 (stereo not drawn) [Example 79, 2-(5-Methyl-2-phenyl-oxazol-4-yl)-3-{4-[2-(5-methyl-2-phenyl-oxazol-4-yl)-ethoxy]-phenyl}-propionic acid]
210 to 212 | O=C(O)[C@H](Cc1ccc(OCCn2c(-c3ccccc3)nc3ccccc32)cc1)n1cccc1 (stereo in doubt) [Example 23, 3-{4-[2-(2-Phenyl-benzimidazol-1-yl)-ethoxy]-phenyl}-2-pyrrol-1-yl-propionic acid]
149.5 to 150.5 | Cc1oc(-c2ccccc2)nc1CCOc1ccc(C[C@@](C)(C(=O)O)n2cccc2)cc1 [Example 52]
165 to 166 | Cc1oc(-c2ccccc2)nc1CCOc1ccc(CC(C)(C(=O)O)c2ccsc2)cc1 (stereo not drawn) [Example 74, 2-Methyl-3-{4-[2-(5-methyl-2-phenyl-oxazol-4-yl)-ethoxy]-phenyl}-2-thiophen-3-yl-propionic acid]
110 | CCc1nnc(C(Cc2ccc(OCCc3nc(-c4ccccc4)oc3C)cc2)c2ccccc2)o1 (stereo not drawn) [Example 43, 2-Ethyl-5-(2-{4-[2-(5-methyl-2-phenyl-oxazol-4-yl)-ethoxy]-phenyl}-1-phenyl-ethyl)-1,3,4-oxadiazole]
187 to 188 | Cc1oc(-c2ccccc2)nc1CCOc1ccc(C[C@@H](C(=O)O)n2cccc2C(=O)C(F)(F)F)cc1 [Example 12, (S)-3-{4-[2-(5-Methyl-2-phenyl-oxazol-4-yl)-ethoxy]-phenyl}-2-[2-(2,2,2-trifluoro-acetyl)-pyrrol-1-yl]-propionic acid]
112 to 113 | Cc1oc(-c2ccccc2)nc1CCOc1ccc(CC(C)(C)C(=O)NS(C)(=O)=O)cc1 [Example 75, N-(2,2-Dimethyl-3-{4-[2-(5-methyl-2-phenyl-oxazol-4-yl)-ethoxy]-phenyl}-propionyl)-methanesulfonamide]
178 to 179 | Cc1oc(-c2ccccc2)nc1CCOc1ccc(CC(C)(C(=O)O)c2ccccc2)cc1 (stereo not drawn) [Example 39, 2-Methyl-3-{4-[2-(5-methyl-2-phenyl-oxazol-4-yl)-ethoxy]-phenyl}-2-phenyl-propionic acid]
118 to 120 | Cc1oc(-c2ccccc2)nc1CCOc1ccc(CC(F)(C(=O)NS(C)(=O)=O)c2ccccc2)cc1 (stereo not drawn) [Example 76, N-(2-Fluoro-3-{4-[2-(5-methyl-2-phenyl-oxazol-4-yl)-ethoxy]-phenyl}-2-phenyl-propionyl)-methanesulfonamide]
169 to 171 | Cc1oc(-c2ccccc2)nc1CCCc1ccc(CC(C(=O)O)n2cncn2)cc1 (stereo not drawn) [Example 94]
201 to 203 | O=C(O)[C@H](Cc1ccc(C#CCN2CCC(c3ccccc3)CC2)cc1)n1cccc1 [Example 121c, (S)-3-{4-[3-(4-Phenyl-piperidin-1-yl)-prop-1-ynyl]-phenyl}-2-pyrrol-1-yl-propionic acid]
158 to 159 | Cc1oc(-c2ccccc2)nc1CCOc1ccc(C[C@@](C)(C(=O)O)n2ccc(Br)c2)cc1 (stereo in doubt) [Example 58, 2-(3-Bromo-pyrrol-1-yl)-2-methyl-3-{4-[2-(5-methyl-2-phenyl-oxazol-4-yl)-ethoxy]-phenyl}-propionic acid]
95 to 100 | O=C(O)[C@H](Cc1ccc(CCCN2CCC(c3ccccc3)CC2)cc1)n1cccc1 [Example 131c, (S)-3-{4-[3-(4-Phenyl-piperidin-1-yl)-propyl]-phenyl}-2-pyrrol-1-yl-propionic acid]
110 to 113 | Cc1oc(-c2ccccc2)nc1CCN(Cc1ccccc1)Cc1ccc(C[C@@H](C(=O)O)n2cccc2)cc1 (as salt: salt)
201 to 203 | Cc1oc(-c2ccccc2)nc1CCOc1ccc(CC(C(=O)O)(n2cccc2)C(F)(F)F)cc1 (stereo not drawn) [Example 159, 3,3,3-Trifluoro-2-{4-[2-(5-methyl-2-phenyl-oxazol-4-yl)-ethoxy]-benzyl}-2-pyrrol-1-yl-propionic acid]

Test system: promoter/enhancer of the murine aP2 gene (PPAR-γ ligands)
Test: 3T3-L1 Transient Reporter Assay (AD3T3-L1 Reporter), Test E
Details: Mus musculus, 3T3-L1, read-out: AD3T3-L1 Reporter EC50(nM)

EC50 [nM] | SMILES
9700 | Cc1oc(-c2ccccc2)nc1CCCc1ccc(CC(C(=O)O)n2cncn2)cc1 (stereo not drawn) [Example 0336683]

Same assay, conditions: maximal response relative to rosiglitazone

SMILES | AD3T3-L1 Reporter Max. % Rosi [% Rosi]
Cc1oc(-c2ccccc2)nc1CCCc1ccc(CC(C(=O)O)n2ccnn2)cc1 (stereo not drawn) [Example 0338227] | 59
Cc1oc(-c2ccccc2)nc1CCCc1ccc(CC(C(=O)O)n2cncn2)cc1 (stereo not drawn) [Example 0336683] | 62.8
Cc1oc(-c2ccccc2)nc1CCCc1ccc(CC(C(=O)O)n2cccn2)cc1 (racemic) [Example 0339165, 3-{4-[3-(5-Methyl-2-phenyl-oxazol-4-yl)-propyl]-phenyl}-2-pyrazol-1-yl-propionic acid] | 90
